This assay deals with T1, Human Nav1.8 (Homo sapiens, UniProt Q9Y5Y9).
T1 construct: expressed in transfected cells; host or cells: HEK293
Put plainly: VIPR assay for Nav1.8 compounds (FRET membrane potential, deltamethrin-opened channels). It is filed as cell-based. The note with it: HEK293 cells expressing human Nav1.8; deltamethrin as opener; read-out: affinity for the NaV1.8 channel (binding affinity; IC50 from VIPR assay). The source says: The ability of the pyridine derivatives of the formula (I) to inhibit the NaV1.8 channel may be measured using the assay described below.
VIPR Assay for Nav1.8 Compounds
This screen is used to determine the effects of compounds on tetrodotoxin-resistant (TTX-R) sodium channels in Human Nav1.8 (HEK293) expressing cell line, utilising the technology of Aurora's fluorescent Voltage/Ion Probe Reader (VIPR). This experiment is based on FRET (Fluorescence Resonance Energy Transfer) and uses two fluorescent molecules. The first molecule, Oxonol (DiSBAC2(3)), is a highly fluorescent, negatively charged, hydrophobic ion that “senses” the trans-membrane electrical potential. […] The voltage dependent redistribution is transduced into a ratiometric fluorescent readout via a second fluorescent molecule (Coumarin (CC2-DMPE)) that binds specifically to one face of the plasma membrane and functions as a FRET partner to the mobile voltage-sensing ion. […]
2. […] Once the incubation is complete, the cells are ready to be assayed using the VIPR for sodium addback membrane potential.
The data was analyzed and reported as normalised ratios of intensities measured in the 460 nm and 580 nm channels. […]
Rf/Ri ratio values are plotted using Excel Labstats (curve fit) or analysed via ECADA to determine an IC50 value for each compound.

T1 sequence (Q9Y5Y9 whole entry): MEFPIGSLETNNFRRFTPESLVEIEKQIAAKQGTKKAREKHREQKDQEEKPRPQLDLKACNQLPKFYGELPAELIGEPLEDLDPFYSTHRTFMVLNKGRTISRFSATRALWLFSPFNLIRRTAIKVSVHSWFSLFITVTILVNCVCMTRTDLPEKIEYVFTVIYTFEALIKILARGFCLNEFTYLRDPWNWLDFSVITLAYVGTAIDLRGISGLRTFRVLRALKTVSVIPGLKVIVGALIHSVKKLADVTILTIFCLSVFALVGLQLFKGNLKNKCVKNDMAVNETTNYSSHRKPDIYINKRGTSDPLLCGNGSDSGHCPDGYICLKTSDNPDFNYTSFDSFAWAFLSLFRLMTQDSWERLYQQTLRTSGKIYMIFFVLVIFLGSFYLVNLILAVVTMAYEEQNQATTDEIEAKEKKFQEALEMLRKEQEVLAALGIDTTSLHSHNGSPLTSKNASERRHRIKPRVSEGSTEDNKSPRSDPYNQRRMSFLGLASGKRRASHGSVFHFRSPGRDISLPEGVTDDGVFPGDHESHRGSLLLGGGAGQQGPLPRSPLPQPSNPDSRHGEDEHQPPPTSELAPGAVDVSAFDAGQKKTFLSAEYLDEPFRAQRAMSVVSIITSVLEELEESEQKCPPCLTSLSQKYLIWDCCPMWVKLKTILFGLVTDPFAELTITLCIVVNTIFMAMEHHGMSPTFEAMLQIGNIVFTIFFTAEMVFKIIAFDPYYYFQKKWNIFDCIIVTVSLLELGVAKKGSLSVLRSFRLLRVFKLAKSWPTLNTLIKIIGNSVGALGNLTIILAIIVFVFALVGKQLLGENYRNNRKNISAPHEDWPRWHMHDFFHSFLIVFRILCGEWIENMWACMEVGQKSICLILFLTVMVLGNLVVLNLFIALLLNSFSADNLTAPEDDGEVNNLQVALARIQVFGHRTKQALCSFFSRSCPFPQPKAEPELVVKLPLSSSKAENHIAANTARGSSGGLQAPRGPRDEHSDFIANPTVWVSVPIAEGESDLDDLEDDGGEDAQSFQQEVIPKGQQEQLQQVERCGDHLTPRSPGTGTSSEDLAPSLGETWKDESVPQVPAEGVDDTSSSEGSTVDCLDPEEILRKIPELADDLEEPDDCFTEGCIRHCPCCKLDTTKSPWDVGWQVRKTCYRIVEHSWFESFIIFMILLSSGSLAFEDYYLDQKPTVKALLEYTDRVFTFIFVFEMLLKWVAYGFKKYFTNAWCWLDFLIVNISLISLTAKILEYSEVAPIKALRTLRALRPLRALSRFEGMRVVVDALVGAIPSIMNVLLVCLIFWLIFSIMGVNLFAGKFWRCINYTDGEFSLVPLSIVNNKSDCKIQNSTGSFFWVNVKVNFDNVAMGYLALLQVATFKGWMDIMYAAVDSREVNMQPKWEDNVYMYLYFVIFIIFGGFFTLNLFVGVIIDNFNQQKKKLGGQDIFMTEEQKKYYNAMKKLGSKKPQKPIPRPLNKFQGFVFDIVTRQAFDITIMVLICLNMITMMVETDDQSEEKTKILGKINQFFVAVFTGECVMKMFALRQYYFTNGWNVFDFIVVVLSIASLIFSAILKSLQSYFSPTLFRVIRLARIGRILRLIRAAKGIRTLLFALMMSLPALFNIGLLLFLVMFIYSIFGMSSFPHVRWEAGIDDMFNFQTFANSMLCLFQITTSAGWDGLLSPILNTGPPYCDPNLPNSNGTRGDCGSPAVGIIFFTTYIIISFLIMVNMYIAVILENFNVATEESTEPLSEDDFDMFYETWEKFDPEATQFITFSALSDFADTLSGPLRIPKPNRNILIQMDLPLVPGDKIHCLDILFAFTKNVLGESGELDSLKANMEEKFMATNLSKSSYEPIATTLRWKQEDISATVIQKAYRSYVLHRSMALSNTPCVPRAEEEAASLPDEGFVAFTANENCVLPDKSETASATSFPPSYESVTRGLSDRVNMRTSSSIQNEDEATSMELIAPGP

With `CNC(=O)c1ccc(-c2cc(Cl)cc(Cl)c2Cl)c(N)n1` [Example 1, 6-Amino-5-(2,3,5-trichloro-phenyl)-pyridine-2-carboxylic acid methylamide], the IC50 is 2040 nM.

For the origin of these results see patent publication US7649004B2, “Pyridine derivatives” (Pfizer, Inc., priority 2004, dated 2010).
